# Laboratory results taken from US20090170937A1, “Amino Acid Derivatives” (Proximagen Ltd., priority 2006, published 2009).
# Non-standard residues stand in square brackets, D forms with d. Residues, ends and D or L forms follow the SMILES beside them. *: point of attachment. Dopa = N[C@@H](Cc1ccc(O)c(O)c1)C(=O)O; αMeF = C[C@](N)(Cc1ccccc1)C(=O)O; Aic = NC1(C(=O)O)Cc2ccccc2C1; Ac6c = NC1(C(=O)O)CCCCC1; Ac5c = NC1(C(=O)O)CCCC1; Ac4c = NC1(C(=O)O)CCC1; Ac3c = NC1(C(=O)O)CC1; Aib = CC(C)(N)C(=O)O; OcHex = C1CCC(O*)CC1; OBn = c1ccc(CO*)cc1; OiPr = CC(C)O*
# System: 6-OHDA-lesioned rats
# Assay: Induction of rotational activity in 6-OHDA-lesioned rats
# Type: in vivo, Male Wistar rats
# Conditions: i.p., 63.4 μmole/kg, after benserazide 10 mg/kg; active = >10 turns per 10 minutes
row,SMILES,duration of activity (as % of L-DOPA duration of activity) [%]
1,"COC(=O)[C@H](Cc1ccc(O)c(O)c1)NC(=O)C(C)(C)N.Cl [Example 1, 1-[(S)-2-(3,4-Dihydroxyphenyl)-1-methoxycarbonylethylcarbamoyl]-1-methyl-ethylammonium Chloride] (H-[Aib]-[Dopa]-OMe)",63

# Same assay, conditions: p.o., 63.4 μmole/kg, after benserazide 10 mg/kg; active = >10 turns per 10 minutes
row,SMILES,duration of activity (as % of L-DOPA duration of activity) [%]
1,"COC(=O)[C@H](Cc1ccc(OC(C)=O)c(OC(C)=O)c1)NC(=O)C(C)(C)N.Cl [Example 2, 1-[(S)-2-(3,4-Diacetoxyphenyl)-1-methoxycarbonylethylcarbamoyl]-1-methyl-ethylammonium Chloride]",73
2,"CC(C)(N)C(=O)N[C@@H](Cc1ccc(O)c(O)c1)C(=O)OCc1ccccc1.Cl [Example 3, 1-[(S)-1-Benzyloxycarbonyl-2-(3,4-dihydroxyphenyl)-ethylcarbamoyl]-1-methyl-ethylammonium Chloride] (H-[Aib]-[Dopa]-OBn)",38
3,"COC(=O)[C@H](Cc1ccc(O)c(O)c1)NC(=O)C1(N)CCCCC1.Cl [Example 4, 1-[(S)-2-(3,4-Dihydroxy-phenyl)-1-methoxycarbonyl-ethylcarbamoyl]-cyclohexyl-ammonium Chloride] (H-[Ac6c]-[Dopa]-OMe)",84
4,"COC(=O)[C@H](Cc1ccc(OC(C)=O)c(OC(C)=O)c1)NC(=O)C1(N)CCCCC1.Cl [Example 5, 1-[(S)-2-(3,4-Diacetoxyphenyl)-1-methoxycarbonylethylcarbamoyl]-cyclohexyl-ammonium Chloride]",42
5,"CC(C)(N)C(=O)N[C@@H](Cc1ccc(O)c(O)c1)C(=O)O.Cl [Example 6, 1-[(S)-1-Carboxy-2-(3,4-dihydroxyphenyl)-ethylcarbamoyl]-1-methylethyl-ammonium Chloride] (H-[Aib]-[Dopa]-OH)",57
6,"COC(=O)[C@H](Cc1ccc(O)c(O)c1)NC(=O)C1(N)CCCC1.Cl [Example 7, 1-[(S)-2-(3,4-Dihydroxyphenyl)-1-methoxycarbonylethylcarbamoyl]-cyclopentyl-ammonium Chloride] (H-[Ac5c]-[Dopa]-OMe)",97
7,"COC(=O)[C@H](Cc1ccc(OC(C)=O)c(OC(C)=O)c1)NC(=O)C1(N)CCCC1.Cl [Example 8, 1-[(S)-2-(3,4-Diacetoxyphenyl)-1-methoxycarbonylethylcarbamoyl]-cyclopentyl-ammonium Chloride]",44
8,"CC(=O)Oc1ccc(C[C@H](NC(=O)C(C)(C)N)C(=O)O)cc1OC(C)=O.Cl [Example 9, 1-[(S)-1-Carboxy-2-(3,4-diacetoxyphenyl)-ethylcarbamoyl]-1-methylethyl-ammonium Chloride]",45
9,COC(=O)[C@H](Cc1ccc(O)c(O)c1)NC(=O)C1(N)CCC1.Cl [Example 10] (H-[Ac4c]-[Dopa]-OMe),73
10,"COC(=O)[C@H](Cc1ccc(OC(C)=O)c(OC(C)=O)c1)NC(=O)C1(N)CCC1.Cl [Example 11, 1-[(S)-2-(3,4-Diacetoxyphenyl)-1-methoxycarbonylethylcarbamoyl]-cyclobutyl-ammonium Chloride]",67
11,"COC(=O)[C@H](Cc1ccc(O)c(O)c1)NC(=O)[C@@](C)(N)Cc1ccccc1.Cl [Example 12, (S)-1-[(S)-2-(3,4-Dihydroxyphenyl)-1-methoxycarbonyl-ethylcarbamoyl]-1-methyl-2-phenylethylammonium Chloride] (H-[αMeF]-[Dopa]-OMe)",52
12,"C[C@](N)(Cc1ccccc1)C(=O)N[C@@H](Cc1ccc(O)c(O)c1)C(=O)O.Cl [Example 13, (S)-1-[(S)-1-Carboxy-2-(3,4-dihydroxyphenyl)-ethylcarbamoyl]-1-methyl-2-phenylethylammonium Chloride] (H-[αMeF]-[Dopa]-OH)",40
13,"Cl.NC1(C(=O)N[C@@H](Cc2ccc(O)c(O)c2)C(=O)O)CCCC1 [Example 14, 1-[(S)-1-Carboxy-2-(3,4-dihydroxyphenyl)-ethylcarbamoyl]-cyclopentyl-ammonium Chloride] (H-[Ac5c]-[Dopa]-OH)",62
14,"COC(=O)[C@H](Cc1ccc(O)c(O)c1)NC(=O)C1(N)Cc2ccccc2C1.Cl [Example 15, 2-[(S)-2-(3,4-Dihydroxyphenyl)-1-methoxycarbonylethylcarbamoyl]-indan-2-yl-ammonium Chloride] (H-[Aic]-[Dopa]-OMe)",31
15,"COC(=O)[C@H](Cc1ccc(OC(C)=O)c(OC(C)=O)c1)NC(=O)C1(N)Cc2ccccc2C1.Cl [Example 16, 2-[(S)-2-(3,4-Diacetoxyphenyl)-1-methoxycarbonylethylcarbamoyl]-indan-2-yl-ammonium Chloride]",21
16,"CC(C)OC(=O)[C@H](Cc1ccc(O)c(O)c1)NC(=O)C(C)(C)N.Cl [Example 17, 1-[(S)-2-(3,4-Dihydroxyphenyl)-1-isopropoxycarbonylethylcarbamoyl]-1-methyl-ethylammonium Chloride] (H-[Aib]-[Dopa]-OiPr)",72
17,CC(C)(N)C(=O)N[C@@H](Cc1ccc(O)c(O)c1)C(=O)OC1CCCCC1.Cl [Example 18] (H-[Aib]-[Dopa]-OcHex),70
18,"Cl.NC1(C(=O)N[C@@H](Cc2ccc(O)c(O)c2)C(=O)O)CCC1 [Example 20, 1-[(S)-1-Carboxy-2-(3,4-dihydroxyphenyl)-ethylcarbamoyl]-cyclobutyl-ammonium Chloride] (H-[Ac4c]-[Dopa]-OH)",37
19,"Cl.NC1(C(=O)N[C@@H](Cc2ccc(O)c(O)c2)C(=O)O)CC1 [Example 21, 1-[(S)-1-Carboxy-2-(3,4-dihydroxyphenyl)-ethylcarbamoyl]-cyclopropyl Ammonium Chloride] (H-[Ac3c]-[Dopa]-OH)",76
20,"COC(=O)[C@H](Cc1ccc(OC(C)=O)c(OC(C)=O)c1)NC(=O)[C@@](C)(N)Cc1ccccc1.Cl [Example 22, (S)-1-[(S)-2-(3,4-Diacetoxyphenyl)-1-methoxycarbonylethylcarbamoyl]-1-methyl-2-phenylethylammonium Chloride]",19
21,"CC(C)CCOC(=O)[C@H](Cc1ccc(O)c(O)c1)NC(=O)C(C)(C)N.Cl [Example 23, 1-[(S)-2-(3,4-Dihydroxyphenyl)-1-(3-methylbutoxycarbonyl)-ethylcarbamoyl]-1-methylethylammonium Chloride]",49
22,"COC(=O)[C@H](Cc1ccc(OC(=O)CC(C)(C)C)c(OC(=O)CC(C)(C)C)c1)NC(=O)C1(N)CCCCC1.Cl [Example 24, 1-{(S)-2-[3,4-Bis-(3,3-dimethylbutyryloxy)-phenyl]-1-methoxycarbonyl-ethylcarbamoyl}-cyclohexylammonium Chloride]",36
